Patent US10829458B2 (Araxes Pharma LLC, priority 2015, dated 2020)

Target: T1, KRAS G12C 1-169, his-tagged protein, GDP-loaded (Homo sapiens, UniProt P01116, G12C)
T1 construct: KRAS G12C 1-169, his-tagged protein, GDP-loaded
Test: Biochemical assay: covalent modification of KRAS G12C measured by mass spectrometry (RapidFire/TOF or Q-Exactive)
Conditions: covalent binding to KRAS G12C
Method in brief: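 GDP-loaded his-tagged KRAS G12C 1-169 at 2 μM in 20 mM Hepes, 150 mM NaCl, 1 mM MgCl2 incubated at room temperature with compound (10, 30 or 100 μM final, 2% DMSO) for 30 min, 2 h or 24 h, then quenched with formic acid. Intact-protein LC-MS (RapidFire/TOF or Q-Exactive) with deconvolution quantified modified versus unmodified protein.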

| SMILES | Binding % (compounds of structure (I)) | other results |
| --- | --- | --- |
| C=CC(=O)N1CCN(c2nc(N3CC(N(CC)CC)C3)nc3c(F)c(-c4c(C)ccc5[nH]ncc45)c(Cl)cc23)CC1 [Example I-144, 1-(4-(6-chloro-2-(3-(diethylamino)azetidin-1-yl)-8-fluoro-7-(5-methyl-1H-indazol-4-yl)quinazolin-4-yl)piperazin-1-yl) prop-2-en-1-one] | +++ (+++ indicates binding activity greater than 90%) |  |
| C=CC(=O)N1CCN(c2ncnc3c(F)c(-c4c(F)cccc4OCc4cncn4C)c(Cl)cc23)CC1 [II-6, 1-(4-(6-chloro-8-fluoro-7-(2-fluoro-6-((1-methyl-1H-imidazol-5-yl)methoxy)phenyl)quinazolin-4-yl)piperazin-1-yl)prop-2-en-1-one] |  | Binding % (compounds of structure (II)): ++ (++ indicates binding activity greater than 50% and less than 75%) |
| C=CC(=O)N1CCN(c2nc(OCC3CCN(C4CC4)CC3)nc3c(F)c(-c4c(C)ccc5[nH]ncc45)c(Cl)cc23)CC1 [Example I-203, 1-(4-(6-chloro-2-((1-cyclopropyl-piperidin-4-yl)methoxy)-8-fluoro-7-(5-methyl-1H-indazol-4-yl)quinazolin-4-yl)piperazin-1-yl) prop-2-en-1-one] | ++ (++ indicates binding activity from 50 to 90%) |  |
| C=CC(=O)N1CCN(c2nc(OCCc3ccccn3)nc3c(F)c(-c4c(O)cccc4F)c(Cl)cc23)CC1 (atropisomer, axis not shown) [Example I-102, (R)-1-(4-(6-chloro-8-fluoro-7-(2-fluoro-6-hydroxyphenyl)-2-(2-(pyridin-2-yl)ethoxy)quinazolin-4-yl)piperazin-1-yl) prop-2-en-1-one] | + (+ indicates binding activity up to 50%) |  |
| C=CC(=O)N1CCN(c2nc(NCC3CCN(C4CC4)CC3)nc3c(F)c(-c4c(C)ccc5[nH]ncc45)c(Cl)cc23)CC1 [Example I-160, 1-(4-(6-chloro-2-((1-cyclo-propyl-piperidin-4-yl)methylamino)-8-fluoro-7-(5-methyl-1H-indazol-4-yl)quinazolin-4-yl)piperazin-l-yl) prop-2-en-1-one] | +++ (+++ indicates binding activity greater than 90%) |  |
| C=CC(=O)N1CCN(c2nc(NC3CCOC3)nc3c(F)c(-c4cc(O)cc5ccccc45)c(Cl)cc23)CC1 (stereo not drawn) [Example I-71, 1-(4-(6-chloro-8-fluoro-7-(3-hydroxy-naphthalen-1-yl)-2-(tetrahydro-furan-3-ylamino)quinazolin-4-yl)piperazin-1-yl)prop-2-en-1-one] | +++ (+++ indicates binding activity greater than 90%) |  |
| C=CC(=O)N1CCN(c2nc(NC3CCN(CC#N)CC3)nc3c(F)c(-c4c(C)ccc5[nH]ncc45)c(Cl)cc23)CC1 [Example I-165, 2-(4-((4-(4-acryloyl-piperazin-1-yl)-6-chloro-8-fluoro-7-(5-methyl-1H-indazol-4-yl)quinazolin-2-yl)amino)piperidin-1-yl) acetonitrile] | ++ (++ indicates binding activity from 50 to 90%) |  |
| C=CC(=O)N1CCN(c2nc(OCC(F)(F)c3ccccn3)nc3c(F)c(-c4c(C)ccc5[nH]ncc45)c(Cl)cc23)CC1 [Example I-123, 1-(4-(6-chloro-2-(2,2-difluoro-2-(pyridin-2-yl)ethoxy)-8-fluoro-7-(5-methyl-1H-indazol-4-yl)quinazolin-4-yl)piperazin-1-yl) prop-2-en-1-one] | +++ (+++ indicates binding activity greater than 90%) |  |
| CN(C)C/C=C/C(=O)N1CCN(c2nc(OCCN3CCOCC3)nc3c(F)c(-c4cc(O)cc5ccccc45)c(Cl)cc23)CC1 [Example I-65, (E)-1-(4-(6-chloro-8-fluoro-7-(3-hydroxy-naphthalen-1-yl)-2-(2-morpholino-ethoxy)quinazolin-4-yl)piperazin-1-yl)-4-(dimethyl-amino)but-2-en-1-one] | +++ (+++ indicates binding activity greater than 90%) |  |
| C=CC(=O)N1CCN(c2nc(NC3CCN(C4CC4)CC3)nc3c(F)c(-c4c(C)ccc5[nH]ncc45)c(Cl)cc23)CC1 (atropisomer, axis not shown) [Example I-82, (R)-1-(4-(6-chloro-2-(1-cyclopropyl-piperidin-4-ylamino)-8-fluoro-7-(5-methyl-1H-indazol-4-yl)quinazolin-4-yl)piperazin-1-yl)prop-2-en-1-one] | +++ (+++ indicates binding activity greater than 90%) |  |
| C=CC(=O)N1CCN(c2nc(OCCN(CC)CC)nc3c(F)c(-c4c(O)cccc4F)c(Cl)cc23)CC1 (atropisomer, axis not shown) [Example I-87, (S)-1-(4-(6-chloro-2-(2-(diethylamino)ethoxy)-8-fluoro-7-(2-fluoro-6-hydroxyphenyl)quinazolin-4-yl)piperazin-1-yl) prop-2-en-1-one] | +++ (+++ indicates binding activity greater than 90%) |  |
| C=CC(=O)N1CCN(c2nc(NC3CCCN(CC(F)(F)F)C3)nc3c(F)c(-c4c(O)cccc4F)c(Cl)cc23)CC1 (stereo not drawn) [Example I-133, 1-(4-(6-chloro-8-fluoro-7-(2-fluoro-6-hydroxyphenyl)-2-(1-(2,2,2-trifluoroethyl)piperidin-3-ylamino)quinazolin-4-yl)piperazin-1-yl) prop-2-en-1-one] | ++ (++ indicates binding activity from 50 to 90%) |  |
| C=CC(=O)N1CCN(c2nc(OC3CCN(C4CC4)CC3)nc3c(F)c(-c4c(C)ccc5[nH]ncc45)c(Cl)cc23)CC1 [Example I-194] | + (+ indicates binding activity up to 50%) |  |
| C=CC(=O)N1CCN(c2nc(OCCN3CC(F)(F)C3)nc3c(F)c(-c4c(C)ccc5[nH]ncc45)c(Cl)cc23)CC1 [Example I-145, 1-(4-(6-chloro-2-(2-(3,3-difluoro-azetidin-1-yl)ethoxy)-8-fluoro-7-(5-methyl-1H-indazol-4-yl)quinazolin-4-yl)piperazin-1-yl) prop-2-en-1-one] | +++ (+++ indicates binding activity greater than 90%) |  |
| C=CC(=O)N1CCN(c2nc(OCC3CCN(C4CC4)CC3)nc3c(F)c(-c4c(O)cccc4F)c(Cl)cc23)CC1 [Example I-172, 1-(4-(6-chloro-2-((1-cyclopropyl-piperidin-4-yl)methoxy)-8-fluoro-7-(2-fluoro-6-hydroxyphenyl)quinazolin-4-yl)piperazin-1-yl) prop-2-en-1-one] | +++ (+++ indicates binding activity greater than 90%) |  |
| C=CC(=O)N1CCN(c2ncnc3c(F)c(-c4cc(O)cc5ccccc45)c(Cl)cc23)[C@@H](C)C1 [III-30, 1-((3S)-4-(6-chloro-8-fluoro-7-(3-hydroxy-naphthalen-1-yl)quinazolin-4-yl)-3-methyl-piperazin-1-yl)prop-2-en-1-one] |  | Binding % (compounds of structure (III)): +++ (+++ indicates binding activity greater than 90%) |
| C=CC(=O)N1CCN(c2nc(OCCN3CCOCC3)nc3c(F)c(-c4cc(O)cc5ccccc45)c(Cl)cc23)CC1 (atropisomer, axis not shown) [Example I-52, (R)-1-(4-(6-chloro-8-fluoro-7-(3-hydroxy-naphthalen-1-yl)-2-(2-morpholino-ethoxy)quinazolin-4-yl)piperazin-1-yl)prop-2-en-1-one] | + (+ indicates binding activity up to 50%) |  |
| C=CC(=O)N1CCN(c2nc(NC3CCN(C)CC3)nc3c(F)c(-c4c(O)cccc4F)c(Cl)cc23)CC1 [Example I-3, 1-(4-(6-chloro-8-fluoro-7-(2-fluoro-6-hydroxyphenyl)-2-(1-methylpiperidin-4-ylamino)quinazolin-4-yl)piperazin-1-yl) prop-2-en-1-one] | +++ (+++ indicates binding activity greater than 90%) |  |
